Data reported in the NIST ThermoML archive (doi:10.1021/je9008624).
Numbers after ± are expanded uncertainties. Values belong to the compound of their own block, whether it stands above or below them.

Columns and labels:
[1] = 298.15 K; 101 kPa; Liquid
[2] = refractive index (Na D-line) (dimensionless); details: 298.15 K; 101.33 kPa; Liquid
[3] = xn = mol fraction of the nth substance listed; details: 298.15 K, 101 kPa, Liquid
[4] = refractive index (Na D-line) (dimensionless); xn = mol fraction of the nth substance listed; details: 298.15 K, 101 kPa, Liquid

Compound: CCCCn1cc[n+](C)c1.F[B-](F)(F)F [1-butyl-3-methylimidazolium tetrafluoroborate]
mass density [1]: 1192.78 ± 0.71 kg/m3
refractive index [2]: 1.41831 ± 0.00066

Compound: CCCCn1cc[n+](C)c1.F[B-](F)(F)F [1-butyl-3-methylimidazolium tetrafluoroborate] + CO
mass density ([3]; x2 = 0): 1192.78 ± 0.71 kg/m3
mass density ([3]; x2 = 0.0517): 1188.58 ± 0.68 kg/m3
mass density ([3]; x2 = 0.104): 1183.87 ± 0.66 kg/m3
mass density ([3]; x2 = 0.1995): 1174.09 ± 0.62 kg/m3
mass density ([3]; x2 = 0.2975): 1162.14 ± 0.57 kg/m3
mass density ([3]; x2 = 0.3993): 1146.82 ± 0.52 kg/m3
mass density ([3]; x2 = 0.5002): 1127.34 ± 0.48 kg/m3
mass density ([3]; x2 = 0.599): 1102.37 ± 0.42 kg/m3
mass density ([3]; x2 = 0.6994): 1067.86 ± 0.35 kg/m3
mass density ([3]; x2 = 0.7997): 1016.59 ± 0.26 kg/m3
mass density ([3]; x2 = 0.9): 934.6 ± 0.29 kg/m3
mass density ([3]; x2 = 0.9501): 872.82 ± 0.37 kg/m3
refractive index ([4]; x2 = 0): 1.41831 ± 0.00066
refractive index ([4]; x2 = 0.0517): 1.41844 ± 0.00066
refractive index ([4]; x2 = 0.104): 1.41726 ± 0.00066
refractive index ([4]; x2 = 0.1995): 1.41454 ± 0.00066
refractive index ([4]; x2 = 0.2975): 1.41296 ± 0.00065
refractive index ([4]; x2 = 0.3993): 1.41485 ± 0.00065
refractive index ([4]; x2 = 0.5002): 1.41652 ± 0.00065
refractive index ([4]; x2 = 0.599): 1.41435 ± 0.00065
refractive index ([4]; x2 = 0.6994): 1.40537 ± 0.00065
refractive index ([4]; x2 = 0.7997): 1.39145 ± 0.00064
refractive index ([4]; x2 = 0.9): 1.37496 ± 0.00064
refractive index ([4]; x2 = 0.9501): 1.36221 ± 0.00064

Compound: CCCCn1cc[n+](C)c1.F[B-](F)(F)F [1-butyl-3-methylimidazolium tetrafluoroborate] + COC(=O)OC
mass density ([3]; x2 = 0): 1192.78 ± 0.71 kg/m3
mass density ([3]; x2 = 0.051): 1191.17 ± 0.69 kg/m3
mass density ([3]; x2 = 0.1014): 1189.24 ± 0.67 kg/m3
mass density ([3]; x2 = 0.1987): 1184.98 ± 0.64 kg/m3
mass density ([3]; x2 = 0.2999): 1179.76 ± 0.6 kg/m3
mass density ([3]; x2 = 0.4012): 1173.39 ± 0.57 kg/m3
mass density ([3]; x2 = 0.5): 1165.72 ± 0.54 kg/m3
mass density ([3]; x2 = 0.6005): 1155.89 ± 0.5 kg/m3
mass density ([3]; x2 = 0.7007): 1143.06 ± 0.46 kg/m3
mass density ([3]; x2 = 0.8003): 1125.52 ± 0.41 kg/m3
mass density ([3]; x2 = 0.9): 1100.22 ± 0.35 kg/m3
refractive index ([4]; x2 = 0): 1.41831 ± 0.00066
refractive index ([4]; x2 = 0.051): 1.4176 ± 0.00066
refractive index ([4]; x2 = 0.1014): 1.41675 ± 0.00066
refractive index ([4]; x2 = 0.1987): 1.41501 ± 0.00066
refractive index ([4]; x2 = 0.2999): 1.41282 ± 0.00065
refractive index ([4]; x2 = 0.4012): 1.41049 ± 0.00065
refractive index ([4]; x2 = 0.5): 1.40796 ± 0.00065
refractive index ([4]; x2 = 0.6005): 1.40459 ± 0.00065
refractive index ([4]; x2 = 0.7007): 1.39931 ± 0.00064
refractive index ([4]; x2 = 0.8003): 1.39196 ± 0.00064
refractive index ([4]; x2 = 0.9): 1.38162 ± 0.00064

Compound: CCOS(=O)(=O)[O-].CCn1cc[n+](C)c1 [1-ethyl-3-methylimidazolium ethyl sulfate]
mass density [1]: 1236.33 ± 0.8 kg/m3
refractive index [2]: 1.47908 ± 0.00066

Compound: CCOS(=O)(=O)[O-].CCn1cc[n+](C)c1 [1-ethyl-3-methylimidazolium ethyl sulfate] + CO
mass density ([3]; x2 = 0): 1236.33 ± 0.8 kg/m3
mass density ([3]; x2 = 0.0487): 1232.01 ± 0.77 kg/m3
mass density ([3]; x2 = 0.0977): 1227.32 ± 0.75 kg/m3
mass density ([3]; x2 = 0.1978): 1216.77 ± 0.7 kg/m3
mass density ([3]; x2 = 0.2989): 1203.48 ± 0.65 kg/m3
mass density ([3]; x2 = 0.3991): 1186.7 ± 0.6 kg/m3
mass density ([3]; x2 = 0.4991): 1165.38 ± 0.55 kg/m3
mass density ([3]; x2 = 0.5993): 1137.34 ± 0.48 kg/m3
mass density ([3]; x2 = 0.7002): 1098.94 ± 0.4 kg/m3
mass density ([3]; x2 = 0.7999): 1043.62 ± 0.31 kg/m3
mass density ([3]; x2 = 0.9002): 953.54 ± 0.27 kg/m3
mass density ([3]; x2 = 0.9502): 884.35 ± 0.36 kg/m3
refractive index ([4]; x2 = 0): 1.47908 ± 0.00066
refractive index ([4]; x2 = 0.0487): 1.47873 ± 0.00066
refractive index ([4]; x2 = 0.0977): 1.47637 ± 0.00066
refractive index ([4]; x2 = 0.1978): 1.47035 ± 0.00066
refractive index ([4]; x2 = 0.2989): 1.46618 ± 0.00065
refractive index ([4]; x2 = 0.3991): 1.46462 ± 0.00065
refractive index ([4]; x2 = 0.4991): 1.46284 ± 0.00065
refractive index ([4]; x2 = 0.5993): 1.45585 ± 0.00065
refractive index ([4]; x2 = 0.7002): 1.43992 ± 0.00065
refractive index ([4]; x2 = 0.7999): 1.41722 ± 0.00064
refractive index ([4]; x2 = 0.9002): 1.39225 ± 0.00064
refractive index ([4]; x2 = 0.9502): 1.37316 ± 0.00064

Compound: CCOS(=O)(=O)[O-].CCn1cc[n+](C)c1 [1-ethyl-3-methylimidazolium ethyl sulfate] + COC(=O)OC
mass density ([3]; x2 = 0): 1236.33 ± 0.8 kg/m3
mass density ([3]; x2 = 0.0502): 1233.17 ± 0.77 kg/m3
mass density ([3]; x2 = 0.0999): 1229.81 ± 0.75 kg/m3
mass density ([3]; x2 = 0.1987): 1223.27 ± 0.71 kg/m3
mass density ([3]; x2 = 0.2999): 1215.47 ± 0.67 kg/m3
mass density ([3]; x2 = 0.3994): 1206.15 ± 0.63 kg/m3
mass density ([3]; x2 = 0.5006): 1194.57 ± 0.59 kg/m3
mass density ([3]; x2 = 0.5999): 1180.67 ± 0.55 kg/m3
mass density ([3]; x2 = 0.7001): 1163.11 ± 0.5 kg/m3
refractive index ([4]; x2 = 0): 1.47908 ± 0.00066
refractive index ([4]; x2 = 0.0502): 1.47687 ± 0.00066
refractive index ([4]; x2 = 0.0999): 1.47443 ± 0.00066
refractive index ([4]; x2 = 0.1987): 1.46971 ± 0.00066
refractive index ([4]; x2 = 0.2999): 1.46385 ± 0.00065
refractive index ([4]; x2 = 0.3994): 1.45729 ± 0.00065
refractive index ([4]; x2 = 0.5006): 1.44906 ± 0.00065
refractive index ([4]; x2 = 0.5999): 1.43953 ± 0.00065
refractive index ([4]; x2 = 0.7001): 1.42848 ± 0.00065

Results, then the compound that gave them:

mass density [1]: 1063.28 ± 0.28 kg/m3
refractive index [2]: 1.36647 ± 0.00064
Compound: COC(=O)OC [dimethyl carbonate]

mass density ([3]; x1 = 1): 1063.28 ± 0.28 kg/m3
refractive index ([4]; x1 = 1): 1.36647 ± 0.00064
Compound: COC(=O)OC [dimethyl carbonate] + CCCCn1cc[n+](C)c1.F[B-](F)(F)F

mass density ([3]; x1 = 1): 1063.28 ± 0.28 kg/m3
refractive index ([4]; x1 = 1): 1.36647 ± 0.00064
Compound: COC(=O)OC [dimethyl carbonate] + CCOS(=O)(=O)[O-].CCn1cc[n+](C)c1

mass density ([3]; x1 = 0.0501): 814.35 ± 0.45 kg/m3
mass density ([3]; x1 = 0.0997): 838.96 ± 0.41 kg/m3
mass density ([3]; x1 = 0.2008): 882.51 ± 0.36 kg/m3
mass density ([3]; x1 = 0.3003): 918.19 ± 0.31 kg/m3
mass density ([3]; x1 = 0.4002): 948.52 ± 0.27 kg/m3
mass density ([3]; x1 = 0.5005): 974.63 ± 0.24 kg/m3
mass density ([3]; x1 = 0.6004): 997.16 ± 0.2 kg/m3
mass density ([3]; x1 = 0.7015): 1017.04 ± 0.21 kg/m3
mass density ([3]; x1 = 0.8012): 1034.29 ± 0.23 kg/m3
mass density ([3]; x1 = 0.8999): 1049.44 ± 0.26 kg/m3
mass density ([3]; x1 = 0.9483): 1056.31 ± 0.27 kg/m3
mass density ([3]; x1 = 1): 1063.28 ± 0.28 kg/m3
refractive index ([4]; x1 = 0.0501): 1.33071 ± 0.00064
refractive index ([4]; x1 = 0.0997): 1.33427 ± 0.00064
refractive index ([4]; x1 = 0.2008): 1.34139 ± 0.00064
refractive index ([4]; x1 = 0.3003): 1.347 ± 0.00064
refractive index ([4]; x1 = 0.4002): 1.35162 ± 0.00064
refractive index ([4]; x1 = 0.5005): 1.35583 ± 0.00064
refractive index ([4]; x1 = 0.6004): 1.35891 ± 0.00064
refractive index ([4]; x1 = 0.7015): 1.36093 ± 0.00064
refractive index ([4]; x1 = 0.8012): 1.36336 ± 0.00064
refractive index ([4]; x1 = 0.8999): 1.36501 ± 0.00064
refractive index ([4]; x1 = 0.9483): 1.36566 ± 0.00064
refractive index ([4]; x1 = 1): 1.36647 ± 0.00064
Compound: COC(=O)OC [dimethyl carbonate] + CO

mass density [1]: 786.72 ± 0.49 kg/m3
refractive index [2]: 1.32668 ± 0.00064
Compound: CO [methanol]

mass density ([3]; x1 = 1): 786.72 ± 0.49 kg/m3
refractive index ([4]; x1 = 1): 1.32668 ± 0.00064
Compound: CO [methanol] + CCCCn1cc[n+](C)c1.F[B-](F)(F)F

mass density ([3]; x1 = 1): 786.72 ± 0.49 kg/m3
refractive index ([4]; x1 = 1): 1.32668 ± 0.00064
Compound: CO [methanol] + CCOS(=O)(=O)[O-].CCn1cc[n+](C)c1

mass density ([3]; x2 = 0): 786.72 ± 0.49 kg/m3
refractive index ([4]; x2 = 0): 1.32668 ± 0.00064
Compound: CO [methanol] + COC(=O)OC
